# From patent publication US6706509B2, “Oncoprotein protein kinase” (The Regents of the University of California, priority 1993, dated 2004)
# What was measured:
# [1] = system: c-jun; assay: c-Jun phosphorylation in 32P-labelled Jurkat cells (SDS-PAGE, tryptic phosphopeptide mapping); type: cell-based, human
# Procedure: Jurkat cells were grown in RPMI with 10% fetal calf serum (FCS), 1 mM […], 100 μ/ml penicillin (pen), 100 μg/ml streptomycin (strep) and 250 ng/ml amphotericin (complete medium). HeLa S3, CV-1 and FR3T3 cells were grown in DMEM supplemented with 10% FCS, 100 μ/ml pen, 100 μg/ml strep. All cells were cultured at 37° C. with 5% CO2. Mouse thymocytes were prepared from 8 week old Balb/C mice by gradient centrifugation on lymphocyte separation medium (Pharmacia). The lymphocytes were cultured for 5 hours at 37° C. in RPMI+10% FCS, prior to stimulation. Jurkat cells were labelled for 90 minutes with 0.5 mCi/ml ^32P-orthophosphate (ICN Radiochemicals) in medium lacking sodium phosphate. Labelled cells were treated with TPA (Sigma) and A23187 (Calbiochem) 1 μg/ml as indicated. When used, cyclosporin A (CsA) (Sandoz) 100 ng/ml in ethanol was added 10 minutes prior to cell stimulation. Following stimulation, the labelled cells were washed twice with ice-cold PBS then lysed with RIPA buffer (10 mM Tris pH 7.5, 150 mM NaCl, 2 mM EDTA, 1% Triton-X 100, 1% DOC, 0.1% SDS) supplemented with phosphatase inhibitors (20 mM β-glycerophosphate, 10 mM p-nitro-phenylphosphate, 1 mM Na3 VO4), and protease inhibitors (10 μg/ml leupeptin, aprotonin, pepstatin and 1 mM phenylmethyl sulfonylfluoride). c-Jun was immunoprecipitated as described (Binetruy, et al., supra., 1992) and analyzed by SDS-PAGE, followed by peptide mapping (Boyle, et al., Cell, 64:573-584, 1991; Lin, et al. Cell, 70:777-789, 1992). Ha-Ras was immunoprecipitated with Y13-259. Ha-Ras bound nucleotides were extracted and analyzed as described by Satoh, et al., (Proc. Natl. Acad. Sci., USA, 15:5993-5997, 1990).
# Induction of c-Jun transcription and optimal stimulation of AP-1 correlate with changes in c-jun phosphorylation (Devary, et al., Cell, 71:1081-1091, 1992). The effect of TPA and A23187 on c-Jun phosphorylation in Jurkat cells was examined. To elevate c-Jun expression, Jurkat cells were transfected with a c-Jun expression vector. The cells were labelled with ^32P and c-Jun was immunoprecipitated from cells subjected to various stimuli and analyzed by SDS-PAGE (FIG. 12A). Jurkat cells (10^6 cells per lane) were transfected with 0.5 μg of a SRα-cJun expression vector and 24 hours later were labeled for 3 hours with ^32P-orthophosphate (1 mCi/ml). After 15 minutes, treatment with 50 ng/ml TPA (T), 1 μg/ml A23187 (A) and 100 ng/ml CsA, either alone or in combination, as indicated, the cells were lysed in RIPA buffer and c-Jun was isolated by immunoprecipitation and analyzed by SDS-PAGE. The c-Jun bands are indicated.
# c-Jun phosphorylation was further analyzed by two-dimensional phosphopeptide mapping (FIG. 12C). This analysis included all the isoforms of c-Jun. All of the c-Jun specific protein bands shown in FIG. 12A, isolated from equal numbers of cells, were excised from the gel and subjected to tryptic phosphopeptide mapping. Shown is a typical result (this experiment was repeated at least three times). N-nonstimulated cells; T-cells treated with 50 ng/ml TPA; T/A: cells treated with 50 ng/ml TPA and 1 μg/ml A23187; T/A+CsA: cells treated with T/A and 100 ng/ml CsA. a,b,c,x and y correspond to the various tryptic phosphopeptides of c-Jun, previously described by Boyle, et al., (Cell, 64:573-584, 1991) and Smeal, et al., (Nature, 354:494-496, 1991). T1 and T2 correspond to the minor phosphorylation sites; Thr91, 93 and 95 (Hibi, et al., Genes & Dev., 7:000, 1993).
# [2] = system: JNK (55 kD and 46 kD forms); assay: In-gel kinase assay of JNK in Jurkat whole cell extracts; type: cell-based, human; details: for JNK activation, in-gel kinase assay, agent alone: TPA 50 ng/ml or A23187 1 μg/ml
# Procedure: In-gel kinase assay was performed as described by Kameshita and Fujisawa, Anal. Biochem., 183:139, (1989) with slight modifications. Briefly, c-Jun binding proteins were isolated from whole cell extracts by using GSH-agarose beads containing 80 μg GST-cJun as described above. Proteins were eluted in Laemlli sample buffer and resolved on 10% SDS-polyacrylamide gel, which was polymerized in the absence or presence of GST-cJun (40 μg/ml). After electrophoresis, the gel was washed twice, 30 minutes each time with 100 ml of 20% 2-propanol, 50 mM HEPES pH 7.6 to remove SDS. After the gel was washed twice, 30 minutes each time, with 100 ml of buffer A (50 mM HEPES pH 7.6, 5 mM β-mercaptoethanol), it was incubated in 200 ml of 6M urea in buffer A at room temperature for 1 hr, followed by serial incubations in buffer A containing 0.05% Tween 20 and either 3M, 1.5M or 0.75M urea. After the gel was washed several times, 1 hr each time, with 100 ml of buffer A containing 0.05% Tween 20 at 4° C., it was incubated with kinase buffer containing 50 μM ATP and 5 μCi/ml γ-^32P-ATP at 30° C. for 1 hour. After the reaction, the gel was washed with 100 ml of 5% tricholoroacetic acid and 1% sodium pyrophosphate at room temperature several times, followed by drying and autoradiography.
# JNK exists in two forms, 46 kD and 55 kD in size, both of which are activated by external stimuli (Hibi, et al., supra, 1993; Deng, et al., supra, 1993). […] Whole cell extracts (WCE) of Jurkat cells incubated with TPA (T, 50 ng/ml), A23187 (A, 1 μg/ml) or CsA (100 ng/ml) for 15 minutes, alone or in combination, were separated by SDS-PAGE (100 μg protein/lane) on gels that were cast in the absence or presence of GST-cJun (1-223). The gels were subjected to renaturation protocol and incubated in kinase buffer containing γ-^32P-ATP. The protein bands corresponding to the 55 kD and 46 kD forms of JNK are indicated.
# The regulation of JNK in response to T cell activation with anti-CD3 and anti-CD28 antibodies was examined. Jurkat cells (1×10^7) were incubated for 15 minutes with either normal mouse serum, 1 μg/ml anti-CD3 and/or 2 μg/ml anti-CD28, in the absence or presence of 100 ng/ml CsA, as indicated. WCE were prepared and 100 μg samples were analyzed for JNK activation using the in-gel kinase assay, as described above.
compound,measurement,setting,value
CNc1ccc2oc(C[C@H]3O[C@@]4(CC[C@H]3C)O[C@H]([C@H](C)C(=O)c3ccc[nH]3)[C@H](C)C[C@H]4C)nc2c1C(=O)O [A23187],"N-terminal c-Jun phosphorylation, costimulation with TPA",[1]; A23187 1 μg/ml plus TPA 50 ng/ml,strongly enhanced
same,"phosphorylated c-Jun migration, costimulation with TPA","[1]; A23187 1 μg/ml plus TPA, 15 minutes",enhanced this effect
same,"JNK activation, in-gel kinase assay, costimulation with TPA","[2]; A23187 1 μg/ml plus TPA 50 ng/ml, 15 minutes",potentiated its activation by TPA
same,"JNK activation, in-gel kinase assay, agent alone","[2]; Jurkat, 15 minutes",did not activate JNK
CCCCCCCCCCCCCC(=O)O[C@@H]1[C@@H](C)[C@@]2(O)[C@@H](C=C(CO)C[C@]3(O)C(=O)C(C)=C[C@@H]23)[C@H]2C(C)(C)[C@]12OC(C)=O [TPA],"phosphorylated c-Jun migration on SDS-PAGE, agent alone","[1]; Jurkat transfected with c-Jun vector, TPA 50 ng/ml, 15 minutes",induced the appearance of slower migrating bands
same,"phosphorylation of N-terminal sites Ser63 and Ser73 of c-Jun (phosphopeptide map), agent alone","[1]; Jurkat, TPA 50 ng/ml",increased phosphorylation of the N-terminal sites
same,"JNK activation, in-gel kinase assay, agent alone","[2]; Jurkat, 15 minutes",activated
anti-CD3: anti-CD3 monoclonal antibody OKT3,"JNK activity, in-gel kinase assay, simultaneous incubation with both antibodies","[2]; Jurkat, 1 μg/ml anti-CD3 and 2 μg/ml anti-CD28, 15 minutes",strong synergistic activation of both forms
cyclosporin A [CsA],"N-terminal c-Jun phosphorylation, CsA added to TPA+A23187",[1]; CsA 100 ng/ml,prevented the enhancement of N-terminal phosphorylation
same,"phosphorylated c-Jun migration, CsA added to TPA+A23187","[1]; CsA 100 ng/ml, 15 minutes",reduced the Ca^++ effect
same,"JNK activation, in-gel kinase assay, CsA added to TPA+A23187","[2]; CsA 100 ng/ml, 15 minutes",blocked this costimulatory effect
